From patent US20070021509A1, “Phosphate transport inhibitors” (priority 2001, published 2007)
Read-outs that look alike come from different tables or passages of the source. One block for each compound: values may come before it.

Tested on: phosphate uptake by rabbit intestinal Brush Border Membrane Vesicles (BBMV)
Experiment: 33PO4 uptake in rabbit intestinal BBMV (HTS), phosphate transporter inhibition in vitro
Assay type: biochemical
Conditions: for IC50: read-out: IC50; for % Inhib. At 100 μM: Table 3, 100 μM compound
Description: The following example outlines the procedures required for in vitro measurement of the inhibition of phosphate uptake by rabbit intestinal Brush Border Membrane Vesicles (BBMV).
Rabbit Intestinal Brush Border Membrane Vesicles (BBMV) were isolated from mucosal scrapings of the upper small intestine (duodenum) of male New Zealand White rabbits. The scrapings were divided into 2 g aliquots in cryopreservation vials, frozen in liquid nitrogen, and stored at −80° C.
The following procedure was performed for each 2 g sample of BBMV mucosal scraping. Buffer volumes and container sizes were adjusted appropriately for the number of 2 g samples used. The entire preparation was performed on ice, unless otherwise stated.
Mucosal scrapings (2 g per tube) were thawed in a 37° C. water bath for 3 minutes and then placed on ice. The scrapings were suspended with a total of 7.5 ml of 300 MET, and transferred to a 250 mL Corning tube on ice. To the suspension was added 30 mL cold (4° C.) deionized water (dH20). The suspension was homogenized with a tissue homogenizer (Polytron) on high speed for 2 minutes. A stir bar and MgCl2 (81.3 mg) was added. The suspension was mixed well by inverting the closed tube. The suspension was stirred on ice, ensuring that a good vortex is achieved with the stir bar, for 40 minutes. The suspension was transferred to a chilled centrifuge tube and spun at 4000×g for 15 minutes. The supernatant was transferred to a new chilled centrifuge tube and spun at 32000×g for 30 minutes. The supernatant was discarded and the pellet was re-suspended with 34 mL cold 60 MET. The suspension was homogenized with a Dounce homogenizer with 8 strokes. The suspension was transferred to a fresh 250 mL Corning tube. A stir bar and 69.1 mg MgCl2 were added. The suspension was stirred well on ice for 10 minutes. The suspension was transferred to a chilled centrifuge tube and spun at 4000×g for 15 minutes. The supernatant was transferred to a new chilled centrifuge tube and spun at 32000×g for 30 minutes. The supernatant was discarded. At this stage, the preparation could be continued or this pellet (P4) could be frozen in liquid nitrogen and stored at −80° C. When needed, this pellet could be allowed to thaw at room temperature for 5 minutes. Continuing the preparation, the pellet was re-suspended with 34 mL cold 280 MH. The suspension was homogenized in a Dounce homogenize with 8 strokes. The suspension was transferred to a new chilled centrifuge tube and spun at 32000×g for 30 minutes. The supernatant was discarded. To the pellet was added 500 μL 280 MH and the pellet was re-suspended very carefully with a 1 mL tuberculin syringe with a 25-gauge needle with care not to create bubbles. Once the entire pellet was suspended, the suspension was transferred to a chilled 1.5 mL microfuge tube. The suspension was evenly dispersed by bringing the suspension up into the syringe through the 25-gauge needle, and back out again 8 times with care not to create bubbles. The total protein concentration was determined by performing a Bradford Protein Assay. Using that value, the BBMV were diluted with 280 MH to reach approximately 0.5-2.0 mg/mL. The solution was used as soon as possible for uptake studies.
The following experiment was performed using a Beckman Multimek 96-tip robotic pipettor. The following outlines the preparation required to screen one 96-well plate of compounds. However, multiple plates could be screened in one experiment.
To the “Uptake Buffers” was added ^33PO4 to reach 200,000 CPM/19 μL. The buffer solutions were stored at room temperature. The following control solutions were prepared and placed into appropriate wells of a polypropylene, 96-well V-bottom plate (“Hot Stock Plate”):
a. Maximum activity (MAX)−Na Uptake buffer+^33PO4 at 200,000 CPM/19 μL
b. Midline activity (MID)−MAX+100 μM KH2PO4, pH 7.4
c. Minimum activity (MIN)− K Uptake buffer+^33PO4 at 200,000 CPM/19 μL

IC50 (Table 2, phosphate uptake): 51 to 100 µM
SMILES: O=C(Nc1ccc(Cl)c(Cl)c1)c1cc(Br)ccc1NS(=O)(=O)c1ccc(Cl)c([N+](=O)[O-])c1 [Compound 113]

IC50 (Table 1, phosphate uptake): 101 to 500 µM
SMILES: O=C(O)c1cc(Br)ccc1NS(=O)(=O)c1cccc(F)c1 [Compound 34]

SMILES: O=[N+]([O-])c1cccc(S(=O)(=O)Nc2ccc(/C=C/c3ccc(NS(=O)(=O)c4cccc([N+](=O)[O-])c4)cc3S(=O)(=O)O)c(S(=O)(=O)O)c2)c1 [Compound 297]
IC50 (Table 13, phosphate uptake): 101 to 500 µM

IC50 (Table 1, phosphate uptake): 101 to 500 µM
SMILES: O=C(O)c1cc(Br)ccc1NS(=O)(=O)c1ccc([N+](=O)[O-])cc1 [Compound 33]

IC50 (Table 2, phosphate uptake): 501 to 1000 µM
SMILES: Cc1c(Cl)cccc1NC(=O)c1cc(Br)ccc1NS(=O)(=O)c1ccc(OC(F)(F)F)cc1 [Compound 83]

IC50 (Table 4, phosphate uptake): 51 to 100 µM
SMILES: O=C(Nc1ccc(Br)cc1P(=O)(O)O)Nc1cccc2ccccc12 [Compound 183]

IC50 (Table 2, phosphate uptake): 51 to 100 µM
SMILES: COc1ccc(S(=O)(=O)Nc2ccc(Br)cc2C(=O)Nc2cccc(Cl)c2)cc1[N+](=O)[O-] [Compound 101]

IC50 (Table 1, phosphate uptake): 51 to 100 µM
SMILES: O=C(O)c1cc(Br)ccc1NS(=O)(=O)c1cc(Cl)c(Cl)cc1Cl [Compound 4]

IC50 (Table 2, phosphate uptake): > 1500 µM
SMILES: Cc1ccccc1NC(=O)c1cc(Br)ccc1NS(=O)(=O)c1ccc(Cl)cc1 [Compound 94]

IC50 (Table 1, phosphate uptake): 101 to 500 µM
SMILES: O=C(O)c1cc(Br)ccc1NS(=O)(=O)c1ccc(Cl)c([N+](=O)[O-])c1 [Compound 15]

IC50 (Table 4, phosphate uptake): 51 to 100 µM
SMILES: O=C(Nc1cc(C(F)(F)F)cc(C(F)(F)F)c1)Nc1ccc(Br)cc1P(=O)(O)O [Compound 182]

IC50 (Table 10, phosphate uptake): 101 to 500 µM
SMILES: O=C(Nc1ccc(Cl)cc1)c1cc(Br)cc(Br)c1O [Compound 255]

IC50 (Table 4, phosphate uptake): 1000 to 1500 µM
SMILES: Cc1cc(C)cc(NC(=O)Nc2ccc(Br)cc2P(=O)(O)O)c1 [Compound 206]

SMILES: O=S(=O)(Cc1ccc(Br)cc1F)c1ccc(Cl)cc1 [Compound 288]
% Inhib. at 100 μM (Table 12, 100 μM compound): 31%

IC50 (Table 2, phosphate uptake): 51 to 100 µM
SMILES: O=C(NCc1ccccc1OC(F)(F)F)c1cc(Br)ccc1NS(=O)(=O)c1ccc(OC(F)(F)F)cc1 [Compound 61]

IC50 (Table 2, phosphate uptake): < 50 µM
SMILES: O=C(Nc1ccc(Cl)c(Cl)c1)c1cc(Br)ccc1NS(=O)(=O)c1ccc(Cl)c([N+](=O)[O-])c1 [Compound 110]

IC50 (Table 10, phosphate uptake): 101 to 500 µM
SMILES: O=C(Nc1ccc(Br)cc1C(=O)O)c1ccc(Cl)c([N+](=O)[O-])c1 [Compound 261]

SMILES: O=[N+]([O-])c1ccc(S(=O)(=O)Nc2ccc(/C=C/c3ccc(NS(=O)(=O)c4ccc([N+](=O)[O-])cc4)cc3S(=O)(=O)O)c(S(=O)(=O)O)c2)cc1 [Compound 294]
IC50 (Table 13, phosphate uptake): 101 to 500 µM

IC50 (Table 10, phosphate uptake): 501 to 1000 µM
SMILES: O=C(Nc1ccc(Br)cc1)c1cc(Br)cc(Br)c1 [Compound 266]

SMILES: O=S(=O)(Nc1ccccc1NS(=O)(=O)c1cc(C(F)(F)F)cc(C(F)(F)F)c1)c1cc(C(F)(F)F)cc(C(F)(F)F)c1 [Compound 176]
% Inhib. At 100 μM: 36%

IC50 (Table 4, phosphate uptake): 501 to 1000 µM
SMILES: CC(=O)c1cccc(NC(=O)Nc2ccc(Br)cc2P(=O)(O)O)c1 [Compound 199]

SMILES: O=S(=O)(Nc1ccc(F)cc1F)c1cc(C(F)(F)F)cc(C(F)(F)F)c1 [Compound 162]
% Inhib. At 100 μM: 29%

IC50 (Table 10, phosphate uptake): 101 to 500 µM
SMILES: O=C(Nc1cc(C(F)(F)F)ccc1C(F)(F)F)c1cc(Br)cc(Br)c1O [Compound 256]

SMILES: O=C(Nc1ccc(Br)cc1)Nc1cccc(C(F)(F)F)c1 [Compound 227]
% Inhib. at 100 μM (Table 5, 100 μM compound): 75%

IC50 (Table 10, phosphate uptake): > 1500 µM
SMILES: O=C(Nc1ccccc1)c1ccccc1P(=O)(O)O [Compound 269]

SMILES: CCOP(=O)(OCC)c1cc(Br)ccc1NC(=O)c1ccc(OC)c(OC)c1 [Compound 248]
% Inhib. at 100 μM (Table 8, 100 μM compound): 48%

SMILES: O=S(=O)(Nc1ccccc1)c1ccccc1 [Compound 159]
% Inhib. At 100 μM: 36%

IC50 (Table 4, phosphate uptake): 501 to 1000 µM
SMILES: O=C(Nc1cccc(Cl)c1)Nc1ccc(Br)cc1P(=O)(O)O [Compound 195]

IC50 (Table 11, phosphate uptake): > 1500 µM
SMILES: COc1cccc(C(=O)/C=C/c2cccc(F)c2)c1 [Compound 278]

SMILES: O=[N+]([O-])c1ccc(S(=O)(=O)n2cnc3ccccc32)cc1 [Compound 164]
% Inhib. At 100 μM: 26%

SMILES: Cn1nc(-c2cc(Cl)cc(Cl)c2O)cc1-c1ccc(Br)cc1 [Compound 238]
% Inhib. at 100 μM (Table 6, 100 μM compound): 16%

IC50 (Table 1, phosphate uptake): 101 to 500 µM
SMILES: C=Cc1ccc(S(=O)(=O)Nc2ccc(Br)cc2C(=O)O)cc1 [Compound 30]

IC50 (Table 2, phosphate uptake): 51 to 100 µM
SMILES: O=C(Nc1cc(Cl)ccc1Cl)c1cc(Br)ccc1NS(=O)(=O)c1ccc(Cl)c([N+](=O)[O-])c1 [Compound 115]

IC50 (Table 1, phosphate uptake): < 50 µM
SMILES: O=C(O)c1cc(Br)ccc1NS(=O)(=O)c1ccc(-c2ccccc2)cc1 [Compound 1]

IC50 (Table 1, phosphate uptake): 101 to 500 µM
SMILES: O=C(O)c1cc(Br)ccc1NS(=O)(=O)c1ccc(Br)cc1 [Compound 18]

SMILES: Cc1ccc(NS(=O)(=O)c2ccc(OC(F)(F)F)cc2)cc1 [Compound 142]
% Inhib. At 100 μM: 67%

IC50 (Table 1, phosphate uptake): 101 to 500 µM
SMILES: O=C(O)c1cc(Br)ccc1NS(=O)(=O)c1ccccc1Cl [Compound 31]

IC50 (Table 2, phosphate uptake): 51 to 100 µM
SMILES: COc1ccc(S(=O)(=O)Nc2ccc(Br)cc2C(=O)Nc2cccc(Br)c2)cc1[N+](=O)[O-] [Compound 103]

IC50 (Table 2, phosphate uptake): 101 to 500 µM
SMILES: O=C(Nc1ccc(Cl)c(Cl)c1)c1cc(Br)ccc1NS(=O)(=O)c1cccc([N+](=O)[O-])c1 [Compound 125]

IC50 (Table 1, phosphate uptake): 501 to 1000 µM
SMILES: COc1ccc(S(=O)(=O)Nc2ccc(Br)cc2C(=O)O)cc1 [Compound 37]

SMILES: c1ccc(Oc2ccc(C3=NOC(c4ccco4)C3)cc2)cc1 (centres unmarked) [Compound 233]
% Inhib. at 100 μM (Table 6, 100 μM compound): 68%

IC50 (Table 2, phosphate uptake): 101 to 500 µM
SMILES: O=C(Nc1cccc(Br)c1)c1cc(Br)ccc1NS(=O)(=O)c1ccc(Cl)c([N+](=O)[O-])c1 [Compound 116]

SMILES: Cc1ccc(CNS(=O)(=O)c2ccc(OC(F)(F)F)cc2)cc1 [Compound 163]
% Inhib. At 100 μM: 26%

SMILES: O=C(Nc1ccc(Cl)cc1)Nc1cccc(C(F)(F)F)c1 [Compound 228]
% Inhib. at 100 μM (Table 5, 100 μM compound): 74%

SMILES: O=C(Nc1cccc(C(F)(F)F)c1)Nc1c(Cl)cccc1Cl [Compound 218]
% Inhib. at 100 μM (Table 5, 100 μM compound): 93%

SMILES: O=C(Nc1ccc(Br)cc1C(F)(F)F)c1cc(Br)ccc1NS(=O)(=O)c1ccc(OC(F)(F)F)cc1 [Compound 169]
% Inhib. At 100 μM: 106%

IC50 (Table 4, phosphate uptake): 51 to 100 µM
SMILES: O=C(Nc1cc(Cl)cc(C(F)(F)F)c1)Nc1ccc(Br)cc1P(=O)(O)O [Compound 181]

SMILES: NC(=O)c1ccccc1NS(=O)(=O)c1ccc(OC(F)(F)F)cc1 [Compound 166]
% Inhib. At 100 μM: 22%

SMILES: O=C(Nc1ccccn1)c1cc(Br)ccc1NS(=O)(=O)c1ccc(OC(F)(F)F)cc1 [Compound 174]
% Inhib. At 100 μM: 84%

IC50 (Table 4, phosphate uptake): 101 to 500 µM
SMILES: O=C(Nc1ccc(F)c(C(F)(F)F)c1)Nc1ccc(Br)cc1P(=O)(O)O [Compound 188]

IC50 (Table 4, phosphate uptake): 101 to 500 µM
SMILES: O=C(Nc1cccc(C(F)(F)F)c1)Nc1ccc(Br)cc1P(=O)(O)O [Compound 192]

SMILES: O=[N+]([O-])c1cc(Br)ccc1N(c1ccc(OC(F)(F)F)cc1)S(=O)(=O)c1ccc(OC(F)(F)F)cc1 [Compound 160]
% Inhib. At 100 μM: 34%

IC50 (Table 10, phosphate uptake): 101 to 500 µM
SMILES: O=C(Nc1ccc(Br)cc1)c1cc(Br)cc(Br)c1OCCP(=O)(O)O [Compound 263]

SMILES: Cc1cc(S(=O)(=O)Cc2ccc(Cl)c(Cl)c2)c(Cl)cc1Cl [Compound 284]
% Inhib. at 100 μM (Table 12, 100 μM compound): 51%

SMILES: O=C(Nc1cccc(C(F)(F)F)c1)Nc1ccc(Cl)cc1Cl [Compound 224]
% Inhib. at 100 μM (Table 5, 100 μM compound): 85%

IC50 (Table 2, phosphate uptake): 51 to 100 µM
SMILES: COc1ccc(S(=O)(=O)Nc2ccc(Br)cc2C(=O)Nc2ccccc2Br)cc1[N+](=O)[O-] [Compound 105]

IC50 (Table 11, phosphate uptake): 501 to 1000 µM
SMILES: O=C(/C=C/c1cccc(F)c1)c1cccc(O)c1 [Compound 277]

IC50 (Table 2, phosphate uptake): 101 to 500 µM
SMILES: COc1ccc(S(=O)(=O)Nc2ccc(Br)cc2C(=O)Nc2ccccc2C)cc1[N+](=O)[O-] [Compound 108]

IC50 (Table 2, phosphate uptake): 51 to 100 µM
SMILES: COc1ccc(S(=O)(=O)Nc2ccc(Br)cc2C(=O)Nc2ccccc2Cl)cc1[N+](=O)[O-] [Compound 99]
